{
  "source": "patent US20150259371A1",
  "about": "“METHODS AND COMPOUNDS FOR INHIBITING GLYCOSYLTRANSFERASES” (SIMON FRASER UNIVERSITY, priority 2010, published 2015)",
  "key": {"[1]": {"test_system": "sialyl-Lewis X (sLeX) expression in HepG2 cells", "assay": "Immunoblot and lectin blot of HepG2 lysates", "format": "cell-based, human", "procedure": "More specifically, monolayers of Hep G2 cells were grown to about 75% confluency in DMEM containing 10% FBS before they were switched to serum free media for 10 h. FBS-free conditions were utilized to limit the amount of fucose which could be made available to cells upon degradation of serum glycoproteins. Cells were subsequently exposed to peracetylated 5-thio-L-fucose (5-T-Fuc) in serum free media for 48 h after which the media were collected, gently centrifuged (800 rpm, 10 min, 4° C.) to remove dead cells, and concentrated (˜10-fold) by centrifugal filration (Amicon, NMWCO 3000 daltons). Cells were washed with cold PBS prior to harvesting them in PBS+0.5% SDS. Proteins were solubilised upon sonication (2 blasts, 10 sec, 15% power) and protein concentrations were determined for all samples by the DC protein concentration assay (BioRad). Samples were normalized prior to analysis. Identical amounts of proteins were analyzed for all lectin-blotting experiments. Cell extracts and conditioned media containing secreted proteins were all analyzed on 8% polyacrylamide gels (FIG. 10).\nMonolayers of HepG2 cells were exposed to 50 μM 5-T-Fuc for varying lengths of time before they were harvested as described above. When necessary, fresh media and inhibitors were added after 24 h. Alternatively, cells were exposed to 5-T-Fuc for 24 h after which the media was replaced and cells were harvested at the indicated time-points (FIG. 11)."}, "[2]": {"test_system": "core (α1,6)-fucosylation in CHO K1 cells", "assay": "Aleura aurantia lectin blot of CHO K1 cells", "format": "cell-based", "conditions": "CHO K1, 48 h"}, "OGT [3]": {"molecular_target": "T1, OGT (Homo sapiens, UniProt O15294)", "T1 construct": "made in house", "T1 sequence (O15294 whole entry)": "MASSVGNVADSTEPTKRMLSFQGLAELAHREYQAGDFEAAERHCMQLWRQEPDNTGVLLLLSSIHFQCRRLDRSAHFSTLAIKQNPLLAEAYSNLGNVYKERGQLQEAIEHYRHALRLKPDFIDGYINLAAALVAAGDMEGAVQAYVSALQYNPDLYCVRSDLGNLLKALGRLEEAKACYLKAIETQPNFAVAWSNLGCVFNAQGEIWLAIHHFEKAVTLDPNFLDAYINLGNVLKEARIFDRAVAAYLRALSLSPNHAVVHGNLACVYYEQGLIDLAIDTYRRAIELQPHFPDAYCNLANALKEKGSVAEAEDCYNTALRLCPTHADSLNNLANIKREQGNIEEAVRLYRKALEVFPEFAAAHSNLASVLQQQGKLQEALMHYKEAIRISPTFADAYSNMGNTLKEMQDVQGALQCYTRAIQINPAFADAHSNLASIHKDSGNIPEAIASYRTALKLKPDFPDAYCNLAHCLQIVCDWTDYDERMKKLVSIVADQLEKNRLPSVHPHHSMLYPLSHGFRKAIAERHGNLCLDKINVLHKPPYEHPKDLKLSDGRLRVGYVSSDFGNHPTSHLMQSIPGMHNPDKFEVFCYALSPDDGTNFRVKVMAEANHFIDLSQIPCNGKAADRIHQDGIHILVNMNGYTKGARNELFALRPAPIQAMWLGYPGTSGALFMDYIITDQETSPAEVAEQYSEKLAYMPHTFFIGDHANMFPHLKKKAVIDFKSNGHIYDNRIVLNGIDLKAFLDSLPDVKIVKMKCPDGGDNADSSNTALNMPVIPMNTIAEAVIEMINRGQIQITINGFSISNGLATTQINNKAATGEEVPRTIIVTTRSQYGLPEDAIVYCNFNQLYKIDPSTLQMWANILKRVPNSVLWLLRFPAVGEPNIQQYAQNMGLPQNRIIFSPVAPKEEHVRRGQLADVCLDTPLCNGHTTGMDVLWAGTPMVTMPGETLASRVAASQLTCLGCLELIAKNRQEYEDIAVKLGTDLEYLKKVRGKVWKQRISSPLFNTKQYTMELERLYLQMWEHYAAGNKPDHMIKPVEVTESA", "conditions": "literature refs 40, 53; read-out: Km of natural substrate for OGT; cited from earlier work"}, "OGT [4]": {"molecular_target": "T1, OGT", "assay": "OGT transfer: UDP-sugar as donor, nup62 acceptor, UDP production by CE", "format": "biochemical", "procedure": "Capillary electrophoresis (CE): CE was performed on a ProteomeLab PA800 (Beckman-Coulter) using fused silica capillaries of […]×44 cm (to detector). The running buffer was 40 mM Na2B4O7 (Sigma), pH 9.5, containing 1.0% (wv) polyethylene glycol (MW 20,000; Fluka) and filtered prior to use. The capillary was conditioned by washing with 1 N NaOH (2 min, 20 psi), 18 MΩ H2O (3 min, 20 psi) and running buffer (5 min, 40 psi). After injecting a short (15 nL) H2O plug, samples were electrostatically introduced and pre-concentrated at the anode by applying a potential of -0.5 kV for 10 s according to the field-amplified sample injection technique described by Chien and Burgi^39. […] Electropherograms were derived by measuring the absorbance at 254 (+/−10) nm at a rate of 4 Hz. […]\nOGT transfer: The ability of OGT (which was over-expressed and purified as described in Ref. ^40) to transfer UDP-5SGlcNAc was tested using recombinant nup62 as the acceptor. […] Production of UDP was monitored at 254 nm; the concentration was determined from a standard curve of UDP standards, which were prepared in triplicate using the same procedure as the reactions, at a concentration of between […] Controls in the absence of nup62 were subtracted to account for OGT-catalyzed hydrolysis of the UDP-sugars."}, "[5]": {"test_system": "anti-O-GlcNAc antibody CTD110.6", "assay": "Blocking of anti-O-GlcNAc antibody binding to modified nup62", "conditions": "0-3 mM", "procedure": "Blocking antibody interactions: Recombinantly modified nup62 was run on a gel and transferred onto nitrocellulose membrane. CTD110.6 at the appropriate dilution was incubated with 0-3 mM Me-GlcNAc or Me-5SGlcNAc for 1 h prior to applying to the membrane overnight at 4° C. The standard procedure for western blots was subsequently followed."}},
  "note": "Entries after “also recorded” stand apart in the source; their conditions may differ. Where a name gives a salt, the structure may show the parent alone.",
  "data": [
    {"molecule": "C[C@H](S)[C@@H](O)[C@@H](O)[C@H](O)C=O", "note": "[Compound 5-T-Fuc, 5-thiofucose]", "values": [
      {"measurement": "sLeX expression, time course", "setting": "[1]; HepG2, 50 μM", "value": "reduces sLeX expression in a time-dependant fashion"},
      {"measurement": "Aleura aurantia lectin reactivity", "setting": "[1]; HepG2, 48 h", "value": "no decrease in Aleura aurantia lectin reactivity was observed"},
      {"measurement": "Maackia amurensis lectin binding", "setting": "[1]; HepG2, 48 h", "value": "dose-dependent increase in Maackia amurensis lectin binding"},
      {"measurement": "time to full recovery of sLeX expression after exposure", "setting": "[1]; HepG2, after a 24 h exposure", "value": "≤ 24", "unit": "h"},
      {"measurement": "sLeX expression, dose response", "setting": "[1]; HepG2, serum free media, 48 h, anti-CD15s", "value": "significant, dose-dependent decrease in sLe^X expression; also recorded: reduces sialyl-lewis X expression in HepG2 liver cells"},
      {"measurement": "core-fucosylated antigens by Aleura aurantia lectin", "setting": "[2]", "value": "no further decrease in lectin reactivity was observed above inhibitor concentrations of 5 μM; also recorded: reduction in core (α1,6)-fucosylation"}
    ]},
    {"molecule": "uridine diphospho-N-acetylglucosamine [UDP-GlcNAc]", "values": [
      {"measurement": "Km", "setting": "OGT [3]", "value": "2 to 7", "unit": "µM"}
    ]},
    {"molecule": "CC(=O)N[C@@H]1[C@@H](O)[C@H](O)[C@@H](CO)S[C@@H]1OP(=O)(O)OP(=O)(O)OC[C@H]1O[C@@H](n2ccc(=O)[nH]c2=O)[C@H](O)[C@@H]1O", "note": "[UDP-5SGlcNAc, 5′-(2-acetamido-2-deoxy-5-thio-a-D-glucopyranosyl)diphosphate triethylammonium salt]", "values": [
      {"measurement": "fold worse donor substrate for OGT as compared to UDP-GlcNAc", "setting": "OGT [4]", "value": "approximately 14 fold"}
    ]},
    {"molecule": "CO[C@H]1S[C@H](CO)[C@@H](O)[C@H](O)[C@H]1NC(C)=O", "note": "[Compound 16, Methyl 2-acetamido-2-deoxy-5-thio-a-D-glucopyranoside]", "values": [
      {"measurement": "blocking of CTD110.6 binding", "setting": "[5]", "value": "blocks binding almost as well as Me-GlcNAc"}
    ]}
  ]
}
